From patent US12077503B2, “Substituted cyclic amides and their use as herbicides” (FMC CORPORATION, priority 2015, dated 2024)
Where two headings read alike, the source gives them in different places.

Tests used:
Format in all cases: in vivo
rice (Oryra sativa) = test: Test B flooded paddy test; conditions: Oryza sativa, 250 g ai/ha, Flood, read-out: Rice plant response rating
Summary of the method: (§1)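 Percent control, visually estimated after 13–15 d in the greenhouse on a 0–100 basis, compares treated pots with untreated ones; compound was put into paddy water 3 cm above the soil when plants had two leaves.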

[1] = test system: barnyardgrass (Echinochloa crus-galli); test: Test B flooded paddy test; conditions: Echinochloa crus-galli, 250 g ai/ha, Flood, read-out: Barnyardgrass plant response rating
Summary of the method: as §1

[2] = test system: sedge, umbrella (small-flower umbrella sedge, Cyperus difformis); test: Test B flooded paddy test; conditions: Cyperus difformis, 250 g ai/ha, Flood, read-out: Sedge, Umbrella plant response rating
Summary of the method: as §1

[3] = test system: ducksalad (Heteranthera limosa); test: Test B flooded paddy test; conditions: Heteranthera limosa, 250 g ai/ha, Flood, read-out: Ducksalad plant response rating
Summary of the method: as §1

[4] = test system: pigweed (Amaranthus retroflexus); test: Test A preemergence; conditions: Amaranthus retroflexus, pre-emergence, 240 h; for pest or weed control at 125 g/ha: 125 g ai/ha, Preemergence, visual injury rating after approximately 10 d, read-out: Pigweed plant response rating (0 to 100 scale, 0 is no effect, 100 is complete control); for pest or weed control at 500 g/ha: 500 g ai/ha, preemergence, visual injury rating about 10 d after treatment, 0 to 100 scale (0 no effect, 100 complete control), read-out: Pigweed plant response rating
[5] = test system: ragweed (common ragweed, Ambrosia elatior); test: Test A postemergence; conditions: Ambrosia artemisiifolia, post-emergence, 240 h, 125 g ai/ha
Summary of the method: (§2)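 Each rating is a visual injury score from 0 to 100 given about 10 d after treatment, judged against untreated controls kept alongside in the greenhouse. In loam soil–sand blend, seeds got a preemergence directed soil spray, while postemergence plants were 2 to 10 cm tall at spraying.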

[6] = test system: Galium (catchweed bedstraw, Galium aparine); test: Test A postemergence; conditions: Galium, post-emergence, 240 h; for pest or weed control at 125 g/ha: 125 g ai/ha
Summary of the method: as §2

Kochia (Kochia scoparia) = test: Test A postemergence; conditions: Bassia scoparia, post-emergence, 240 h; for pest or weed control at 125 g/ha: 125 g ai/ha
Summary of the method: as §2

[7] = test system: barnyardgrass (Echinochloa crus-galli); test: Test A postemergence; conditions: Echinochloa crus-galli, post-emergence, 240 h; for pest or weed control at 125 g/ha: 125 g ai/ha
Summary of the method: as §2

[8] = test system: pigweed (Amaranthus retroflexus); test: Test A postemergence; conditions: Amaranthus retroflexus, post-emergence, 240 h, 125 g ai/ha
Summary of the method: as §2

[9] = test system: ryegrass, Italian (Italian ryegrass, Lolium multiflorum); test: Test A postemergence; conditions: Lolium multiflorum, post-emergence, 240 h, 125 g ai/ha
Summary of the method: as §2

[10] = test system: blackgrass (Alopecurus myosuroides); test: Test A postemergence; conditions: Alopecurus myosuroides, post-emergence, 240 h; for pest or weed control at 125 g/ha: 125 g ai/ha
Summary of the method: as §2

corn (Zea mays) = test: Test A postemergence; conditions: Zea mays, post-emergence, 240 h
Summary of the method: as §2

[11] = test system: wheat (Triticum aestivum); test: Test A postemergence; conditions: Triticum aestivum, post-emergence, 240 h, 125 g ai/ha
Summary of the method: as §2

[12] = test system: giant foxtail (Setaria faberii); test: Test A postemergence; conditions: Setaria faberi, post-emergence, 240 h; for pest or weed control at 125 g/ha: 125 g ai/ha
Summary of the method: as §2

[13] = 0 to 100 scale where 0 is no effect and 100 is complete control
[14] = scale of 0 to 100 where 0 is no effect and 100 is complete control

Cc1cc([C@H]2CNC(=O)[C@@H]2C(=O)Nc2ccccc2F)ccc1C(F)(F)F [Compound 1042]
pest or weed control at 250 g/ha (rice (Oryra sativa); [13]): 0% | pest or weed control at 250 g/ha [1, 13]: 30% | pest or weed control at 250 g/ha [2, 13]: 0% | pest or weed control at 250 g/ha [3, 13]: 75% | pest or weed control at 125 g/ha [4]: 30% | pest or weed control at 500 g/ha [4]: 50% | pest or weed control at 125 g/ha ([5]; postemergence, visual injury on 0 to 100 scale (0 no effect, 100 complete control), approx. 10 d, read-out: Ragweed plant response rating): 0% | pest or weed control at 125 g/ha ([6]; postemergence, visual injury on 0 to 100 scale (0 no effect, 100 complete control), approx. 10 d, read-out: Galium plant response rating): 30% | pest or weed control at 500 g/ha ([6]; 500 g ai/ha, postemergence, visual injury, 0 to 100 scale (0 no effect, 100 complete control), approx. 10 d, read-out: Plant response rating, Galium): 50% | pest or weed control at 125 g/ha (Kochia (Kochia scoparia); postemergence, visual injury on 0 to 100 scale (0 no effect, 100 complete control), approx. 10 d, read-out: Kochia plant response rating): 30% | pest or weed control at 500 g/ha (Kochia (Kochia scoparia); 500 g ai/ha, postemergence, visual injury, 0 to 100 scale (0 no effect, 100 complete control), approx. 10 d, read-out: Plant response rating, Kochia): 60% | pest or weed control at 125 g/ha ([7]; postemergence, visual injury on 0 to 100 scale (0 no effect, 100 complete control), approx. 10 d, read-out: Barnyardgrass plant response rating): 80% | pest or weed control at 500 g/ha ([7]; 500 g ai/ha, postemergence, visual injury, 0 to 100 scale (0 no effect, 100 complete control), approx. 10 d, read-out: Plant response rating, Barnyardgrass): 90% | pest or weed control at 125 g/ha ([8]; postemergence, visual injury on 0 to 100 scale (0 no effect, 100 complete control), approx. 10 d, read-out: Pigweed plant response rating): 20% | pest or weed control at 125 g/ha ([9]; postemergence, visual injury on 0 to 100 scale (0 no effect, 100 complete control), approx. 10 d, read-out: Ryegrass, Italian plant response rating): 30% | pest or weed control at 125 g/ha ([10]; postemergence, visual injury on 0 to 100 scale (0 no effect, 100 complete control), approx. 10 d, read-out: Blackgrass plant response rating): 40% | pest or weed control at 500 g/ha ([10]; 500 g ai/ha, postemergence, visual injury, 0 to 100 scale (0 no effect, 100 complete control), approx. 10 d, read-out: Plant response rating, Blackgrass): 70% | plant injury at 125 g/ha (corn (Zea mays); 125 g ai/ha, postemergence, visual injury on 0 to 100 scale (0 no effect, 100 complete control), approx. 10 d, read-out: Corn plant response rating): 60% | Corn plant response rating (crop injury, 0 = no effect, 100 = complete kill) at 500 g/ha (corn (Zea mays); 500 g ai/ha, postemergence, visual injury, 0 to 100 scale (0 no effect, 100 complete control), approx. 10 d): 70% | plant injury at 125 g/ha ([11]; postemergence, visual injury on 0 to 100 scale (0 no effect, 100 complete control), approx. 10 d, read-out: Wheat plant response rating): 0% | pest or weed control at 125 g/ha ([12]; postemergence, visual injury on 0 to 100 scale (0 no effect, 100 complete control), approx. 10 d, read-out: Foxtail, Giant plant response rating): 80% | pest or weed control at 500 g/ha ([12]; 500 g ai/ha, postemergence, visual injury, 0 to 100 scale (0 no effect, 100 complete control), approx. 10 d, read-out: Plant response rating, Foxtail, Giant): 90%

CN1C[C@H](c2cc(F)cc(F)c2)[C@@H](C(=O)Nc2ccc(C(F)(F)F)cc2)C1=O [Compound 968]
pest or weed control at 250 g/ha (rice (Oryra sativa); [14]): 0% | pest or weed control at 250 g/ha [1, 14]: 0% | pest or weed control at 250 g/ha [2, 14]: 0% | pest or weed control at 250 g/ha [3, 14]: 30% | pest or weed control at 125 g/ha [4]: 0% | pest or weed control at 500 g/ha [4]: 0% | pest or weed control at 125 g/ha ([5]; Postemergence, visual injury after approximately 10 d, 0 to 100 scale where 0 is no effect and 100 is complete control, read-out: Plant response rating, Ragweed): 0% | pest or weed control at 125 g/ha ([6]; Postemergence, visual injury after approximately 10 d, 0 to 100 scale where 0 is no effect and 100 is complete control, read-out: Plant response rating, Galium): 0% | pest or weed control at 125 g/ha (Kochia (Kochia scoparia); Postemergence, visual injury after approximately 10 d, 0 to 100 scale where 0 is no effect and 100 is complete control, read-out: Plant response rating, Kochia): 0% | pest or weed control at 125 g/ha ([7]; Postemergence, visual injury after approximately 10 d, 0 to 100 scale where 0 is no effect and 100 is complete control, read-out: Plant response rating, Barnyardgrass): 20% | pest or weed control at 125 g/ha ([8]; Postemergence, visual injury after approximately 10 d, 0 to 100 scale where 0 is no effect and 100 is complete control, read-out: Plant response rating, Pigweed): 0% | pest or weed control at 125 g/ha ([9]; Postemergence, visual injury after approximately 10 d, 0 to 100 scale where 0 is no effect and 100 is complete control, read-out: Plant response rating, Ryegrass, Italian): 0% | pest or weed control at 125 g/ha ([10]; Postemergence, visual injury after approximately 10 d, 0 to 100 scale where 0 is no effect and 100 is complete control, read-out: Plant response rating, Blackgrass): 0% | Corn plant response rating (crop injury, 0 = no effect, 100 = complete kill) at 125 g/ha (corn (Zea mays); 125 g ai/ha, Postemergence, visual injury after approximately 10 d, 0 to 100 scale where 0 is no effect and 100 is complete control): 0% | plant injury at 125 g/ha ([11]; Postemergence, visual injury after approximately 10 d, 0 to 100 scale where 0 is no effect and 100 is complete control, read-out: Plant response rating, Wheat): 0% | pest or weed control at 125 g/ha ([12]; Postemergence, visual injury after approximately 10 d, 0 to 100 scale where 0 is no effect and 100 is complete control, read-out: Plant response rating, Foxtail, Giant): 0%
